# Results as given in paper PMC7725003, “Systematically Studying the Optimal Amino Acid Distribution Patterns of the Amphiphilic Structure by Using the Ultrashort Amphiphiles” (Frontiers in Microbiology, 2020).
# Where no end group is shown, it is not given here.
# Key:
# [1] = system: B. subtilis 63501; assay type: cell-based, Bacillus subtilis; conditions: 63501, 24 h
# In short: (§1)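 Broth microdilution adapted from NCCLS. Peptide series in 0.2% BSA meets an equal volume of MHB culture at 0.5–1 × 10^6 CFU mL^–1; 24 h incubation at 37°C; MIC read as 95% growth inhibition at 492 nm.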
# [2] = system: Listeria monocytogenes CGMCC 1.1075; assay type: cell-based; conditions: CGMCC 1.1075, 24 h
# In short: as §1
# [3] = system: E. faecalis 29212; assay type: cell-based, Enterococcus faecalis; conditions: 29212, 24 h
# In short: as §1
# [4] = system: E. coli K99
# In short: (§2)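 Peptides were serially diluted in 0.2% BSA and added to mid-logarithmic cells diluted in MHB to 0.5–1 × 10^6 CFU mL^–1. Assays followed an adapted NCCLS protocol.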
# [5] = system: E. coli K88
# In short: as §2
# [6] = system: S. epidermidis 12228; assay type: cell-based, Staphylococcus epidermidis; conditions: 12228, 24 h
# In short: as §1
# [7] = system: S. aureus 29213; assay type: cell-based, Staphylococcus aureus; conditions: 29213, 24 h
# In short: as §1
# [8] = system: S. aureus 25923; assay type: cell-based, Staphylococcus aureus; conditions: 25923, 24 h
# In short: as §1
# [9] = system: MRSA 43300; assay type: cell-based, methicillin-resistant S. aureus; conditions: 43300, 24 h
# In short: as §1
# [10] = system: Gram-negative bacteria; conditions: geometric mean of MBCs, 9 Gram-negative strains (Table 2)
# [11] = system: E. coli UB1005; assay type: cell-based, Escherichia coli; conditions: UB1005, 24 h
# In short: as §1
# [12] = system: E. coli 25922; assay type: cell-based, Escherichia coli; conditions: 25922, 24 h
# In short: as §1
# [13] = system: E. coli O78; assay type: cell-based, Escherichia coli; conditions: O78, 24 h
# In short: as §1
# [14] = system: Gram-negative bacteria
# In short: (§3)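 MIC is the lowest peptide concentration giving 95% growth inhibition, read at 492 nm after 24 h incubation at 37°C. Peptides were serially diluted in 0.2% BSA and added to mid-logarithmic cells at 0.5–1 × 10^6 CFU mL^–1 in MHB, following a modified NCCLS method, with more than 3 repeats.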
# [15] = system: Gram-positive bacteria
# In short: as §3
# [16] = system: E. coli ATCC 25922; experiment: Salt sensitivity assay (MIC); assay type: cell-based, Escherichia coli
# In short: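 Peptides diluted serially in 0.2% BSA solution were combined at identical volumes with mid-logarithmic E. coli ATCC 25922 in MHB (0.5–1 × 10^6 CFU mL^–1) in 96-well plates, with or without a physiological salt. Plates were incubated for 24 h at 37°C. MIC was the lowest concentration inhibiting 95% of growth, measured as absorbance at 492 nm on a microplate reader.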
# [17] = system: S. typhimurium 14028; assay type: cell-based, Salmonella typhimurium; conditions: 14028, 24 h
# In short: as §1
# [18] = system: S. typhimurium 7731; assay type: cell-based, Salmonella typhimurium; conditions: 7731, 24 h
# In short: as §1
# [19] = system: Gram-positive bacteria; conditions: geometric mean of MBCs, 7 Gram-positive strains (Table 2)
# [20] = system: S. aureus 29213; experiment: Salt sensitivity assay (MIC); assay type: cell-based, Staphylococcus aureus
# In short: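 Physiological salts (150 mM NaCl, 4.5 mM KCl, 6 μM NH4Cl, 8 μM ZnCl2, 1 mM MgCl2, 2mM CaCl2, 4 μM FeCl3) added to MHB. Bacteria at 0.5–1 × 10^6 CFU/mL exposed to serially diluted peptides for 24 h at 37°C. MIC read as lowest peptide concentration giving 95% growth inhibition by absorbance at 492 nm.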
# [21] = system: P. aeruginosa 27853; assay type: cell-based, Pseudomonas aeruginosa; conditions: 27853, 24 h
# In short: as §1
# [22] = system: all of the tested bacterial strains; experiment: Geometric mean of MICs, all tested bacterial strains; assay type: cell-based
# In short: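 Per strain, MIC came from absorbance at 492 nm after 24 h at 37°C (≥95% inhibition), using mid-log inoculum of 0.5–1 × 10^6 CFU mL^–1 in MHB and peptide diluted in 0.2% BSA. MBC (>99.9% killed) came from overnight agar plating, and values are geometric means across strains.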
# [23] = system: S. pullorum 7913; assay type: cell-based, Salmonella pullorum; conditions: 7913, 24 h
# In short: as §1
# [24] = MHB, 24 h 37°C, 95% growth inhibition
# [25] = value in brackets, >99.9% of cells killed
# [26] = therapeutic index TI = MHC/GM MIC
substance,measurement,setting,value
RRLLLRLRL-NH2 [L8],MBC,[1],8 µM
same,MIC,[1],4 µM
same,MBC,[2],8 µM
same,MIC,[2],4 µM
same,MIC,[3],> 64 µM
same,MIC,[4]; [24],16 µM
same,MBC,[4]; [25],32 µM
same,MIC,[5]; [24],4 µM
same,MBC,[5]; [25],8 µM
same,MBC,[6],64 µM
same,MIC,[6],32 µM
same,MBC,[7],64 µM
same,MIC,[7],32 µM
same,MBC,[8],128 µM
same,MIC,[8],64 µM
same,MBC,[9],64 µM
same,MIC,[9],32 µM
same,GM MBC,[10],32.00 µM
same,MBC,[11],64 µM
same,MIC,[11],32 µM
same,MBC,[12],32 µM
same,MIC,[12],16 µM
same,MBC,[13],16 µM
same,MIC,[13],8 µM
same,GM MIC,"[14]; geometric mean of MICs, 9 Gram-negative strains (Table 2)",17.28 µM
same,"TI, Gram-negative bacteria",[14]; [26],14.81
same,GM MIC,"[15]; geometric mean of MICs, 7 Gram-positive strains (Table 2)",23.78 µM
same,"TI, Gram-positive bacteria",[15]; [26],10.77
same,"MIC, FeCl3",[16]; 4 μM FeCl3,16 µM
same,"MIC, NH4Cl",[16]; 6 μM NH4Cl,8 µM
same,"MIC, ZnCl2",[16]; 8 μM ZnCl2,8 µM
same,"MIC, MgCl2",[16]; 1 mM MgCl2,32 µM
same,"MIC, CaCl2",[16]; 2 mM CaCl2,> 64 µM
same,"MIC, KCl",[16]; 4.5 mM KCl,32 µM
same,"MIC, NaCl",[16]; 150 mM NaCl,64 µM
same,"MIC, Control","[16]; no added salt, three independent assays",16 µM
same,MBC,[17],64 µM
same,MIC,[17],32 µM
same,MBC,[18],64 µM
same,MIC,[18],32 µM
same,GM MBC,[19],43.07 µM
same,"MIC, FeCl3",[20]; 4 μM FeCl3,32 µM
same,"MIC, NH4Cl",[20]; 6 μM NH4Cl,32 µM
same,"MIC, ZnCl2",[20]; 8 μM ZnCl2,32 µM
same,"MIC, MgCl2",[20]; 1 mM MgCl2,64 µM
same,"MIC, CaCl2",[20]; 2 mM CaCl2,> 64 µM
same,"MIC, KCl",[20]; 4.5 mM KCl,64 µM
same,MBC,[21],128 µM
same,MIC,[21],64 µM
same,"GM, All",[22]; geometric mean of MICs across all tested strains,19.87 µM
same,"TI, All",[22]; [26],12.88
same,MBC,[23],16 µM
same,MIC,[23],8 µM
